Laboratory results: the supplement of paper PMC11208160

assay: recombinant UMI read abundance after kanamycin selection (control-corrected) (log10(CPM+1)); higher = more efficient recombination; extreme values may be limits of the assay; sequences stand for … in AGTGCAGAGAAAATCGGCCAGTTTTCTCTGCCTGCAGTCCGCATGCCGTGGGACCCCTTGGGTTCTAACCTGTTGCCTAGATTTATGCAGCGGACTGCCTTTCTCCCAAAGTGATAAACCGG…AGGTTGGTTTCACT; site = the 11-nt donor
Method in brief: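 The measure is log10(CPM+1) for recombinant UMIs. These were PCR-amplified across the donor–target junction and sequenced after Escherichia coli carrying a donor and donor-binding-loop pair library and a target plasmid with T7-inducible IS621 bridge recombinase was plated on IPTG (0.07 mM) plus kanamycin or unselected. CPM were averaged over two replicates and scaled by control-derived factors.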
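Also: IS621 bridge recombinase in Escherichia coli cells against a fixed T5 target plasmid.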

Q: For “ACAGCGTCATGGACCGGTTTTCCCGGTAATCCGTATTTGAC (site ACAGCGTCTGT)”, which “recombinant UMI read abundance (log10)” value is on record?
A: 3.29

Q: For “CATGCACCATGGACCGGTTTTCCCGGTAATCCGTATTTGAC (site CATGCACCTGT)”, which “recombinant UMI read abundance (log10)” value is on record?
A: 0

Q: Which “recombinant UMI read abundance (log10)” value does the source give for “ACCTAGACATGGACCGGTTTTCCCGGTAATCCGTATTTGGC (site ACCTAGACTCC)” here?
A: 0.0128

Q: Which “recombinant UMI read abundance (log10)” value does the source give for “TTCTCCTCATGGACCGGTTTTCCCGGTAATCCGTATTTGTT (site TTCTCCTCTAA)” here?
A: 0.151

Q: Which “recombinant UMI read abundance (log10)” value does the source give for “TCTAGAACATGGACCGGTTTTCCCGGTAATCCGTATTTGAG (site CCTAGAACTCT)” here?
A: 0.0482

Q: Which “recombinant UMI read abundance (log10)” value does the source give for “CCTAAAGCATGGACCGGTTTTCCCGGTAATCCGTATTTGAG (site CCTAAAGCTAT)” here?
A: 0

Q: With “CTTTAAACATGGACCGGTTTTCCCGGTAATCCGTATTTGTA (site CTTTAAACTTA)” as the sequence, how does the “recombinant UMI read abundance (log10)” value read?
A: 1.06

Q: Which “recombinant UMI read abundance (log10)” value does the source give for “AGGAAGACATGGACCGGTTTTCCCGGTAATCCGTATTTGCT (site AGGAAGACTCG)” here?
A: 0.519

Q: For “CGGGACACATGGACCGGTTTTCCCGGTAATCCGTATTTGTC (site CGGGACACTGA)”, which “recombinant UMI read abundance (log10)” value is on record?
A: 3.03

Q: Which “recombinant UMI read abundance (log10)” value does the source give for “CTATACTCATGGACCGGTTTTCCCGGTAATCCGTATTTGTT (site CTATACTCTAA)” here?
A: 3.11

Q: For “CGTTAGACATGGACCGGTTTTCCCGGTAATCCGTATTTGAG (site CGTTAGCCTCT)”, which “recombinant UMI read abundance (log10)” value is on record?
A: 0.021

Q: With “GCCACGCCATGGACCGGTTTTCCCGGTAATCCGTATTTGAA (site GCCACGCCTTG)” as the sequence, how does the “recombinant UMI read abundance (log10)” value read?
A: 0

Q: With “GTATGCCCATGGACCGGTTTTCCCGGTAATCCGTATTTGTA (site GTATGCACTTA)” as the sequence, how does the “recombinant UMI read abundance (log10)” value read?
A: 0.0189

Q: Which “recombinant UMI read abundance (log10)” value does the source give for “ACCTCTCCATGGACCGGTTTTCCCGGTAATCCGTATTTGCA (site ACCTCTCCTTG)” here?
A: 0.367

Q: For “CGATCATCATGGACCGGTTTTCCCGGTAATCCGTATTTGCT (site AGATTATCTAG)”, which “recombinant UMI read abundance (log10)” value is on record?
A: 0.017

Q: With “GCTACTGCATGGACCGGTTTTCCCGGTAATCCGTATTTGCC (site GCTACTCCTGG)” as the sequence, how does the “recombinant UMI read abundance (log10)” value read?
A: 0

Q: With “ATAGCCTCATGGACCGGTTTTCCCGGTAATCCGTATTTGTA (site ATAGCCTCTTA)” as the sequence, how does the “recombinant UMI read abundance (log10)” value read?
A: 2.86

Q: For “CGATCATCATGGACCGGTTTTCCCGGTAATCCGTATTTGCT (site CGATCGCCTAG)”, which “recombinant UMI read abundance (log10)” value is on record?
A: 0.00385

Q: With “CCCGGTTCATGGACCGGTTTTCCCGGTAATCCGTATTTGCA (site CCCGGTCCTTG)” as the sequence, how does the “recombinant UMI read abundance (log10)” value read?
A: 0

Q: For “GGTACGTCATGGACCGGTTTTCCCGGTAATCCGTATTTGAT (site GGTACGTCTAG)”, which “recombinant UMI read abundance (log10)” value is on record?
A: 0

Q: Which “recombinant UMI read abundance (log10)” value does the source give for “AAATCTACATGGACCGGTTTTCCCGGTAATCCGTATTTGTG (site AAATCTACTCA)” here?
A: 0.209

Q: Which “recombinant UMI read abundance (log10)” value does the source give for “ATTGTGTCATGGACCGGTTTTCCCGGTAATCCGTATTTGAC (site ATTGTGTCTGT)” here?
A: 1.6

Q: Which “recombinant UMI read abundance (log10)” value does the source give for “AGGAAGCCATGGACCGGTTTTCCCGGTAATCCGTATTTGCA (site AGGAAGTCTTG)” here?
A: 0

Q: With “ACCTAAACATGGACCGGTTTTCCCGGTAATCCGTATTTGGG (site ACCTAGACTCC)” as the sequence, how does the “recombinant UMI read abundance (log10)” value read?
A: 0.0149

Q: For “TTTGCGTCATGGACCGGTTTTCCCGGTAATCCGTATTTGCT (site TTTGCGACTAG)”, which “recombinant UMI read abundance (log10)” value is on record?
A: 0

Q: For “GTAGGTACATGGACCGGTTTTCCCGGTAATCCGTATTTGAA (site GTAGGTACTCT)”, which “recombinant UMI read abundance (log10)” value is on record?
A: 0.518

Q: For “CGCCGTACATGGACCGGTTTTCCCGGTAATCCGTATTTGCT (site CGCCGGACTAG)”, which “recombinant UMI read abundance (log10)” value is on record?
A: 0

Q: With “CTGTTGCCATGGACCGGTTTTCCCGGTAATCCGTATTTGAC (site CTGTTGCCTGT)” as the sequence, how does the “recombinant UMI read abundance (log10)” value read?
A: 0

Q: For “GATTATCCATGGACCGGTTTTCCCGGTAATCCGTATTTGGT (site GATTATCCTAC)”, which “recombinant UMI read abundance (log10)” value is on record?
A: 0.0163

Q: Which “recombinant UMI read abundance (log10)” value does the source give for “AATTATGCATGGACCGGTTTTCCCGGTAATCCGTATTTGGA (site AATTAGGCTTC)” here?
A: 0.38

Q: For “CGATCATCATGGACCGGTTTTCCCGGTAATCCGTATTTGCT (site TGATAATCTAG)”, which “recombinant UMI read abundance (log10)” value is on record?
A: 0

Q: Which “recombinant UMI read abundance (log10)” value does the source give for “TTGAATACATGGACCGGTTTTCCCGGTAATCCGTATTTGCA (site TTGAATACTTG)” here?
A: 0.467
